Experimental findings from patent publication US20110237686A1, “FORMULATIONS AND METHODS OF USE” (Cerulean Pharma Inc, priority 2010, published 2011) are described below.

One series concerns B16.F10 cells. The series is described as follows: CellTiter-Glo Luminescent Cell Viability Assay (cytotoxicity of nanoparticles). Type of series: cell-based, mouse. To be noted: for pIC50: Mus musculus, B16.F10 cells, 24, 48 and 72 hours of incubation tested, time of the IC50 not stated. The procedure:
The Cytotoxicity of nanoparticles formed from polymer drug conjugates was evaluated using the following protocol. […] B16.F10 cells, grown to 85-90% confluency in 150 cm^2 flasks (passage<30), were resuspended in media (MEM-alpha, 10% HI-FBS, 1× antibiotic-antimycotic) and added to 96-well opaque-clear bottom plates at a concentration of 1500 cells/well in 200 μL/well. The cells were incubated at 37° C. with 5% CO2 for 24 hours. The following day, serial dilutions of 2×concentrated particles and 2× concentrated free drug were made in 12-well reservoirs with media to specified concentrations. The media in the plates was replaced with 100 μL of fresh media and 100 μL of the corresponding serially diluted drug. Three sets of plates were prepared with duplicate treatments. Following 24, 48 and 72 hours of incubation at 37° C. with 5% CO2, the media in the plates was replaced with 100 μL of fresh media and […] of CTG solution, and then incubated for 5 minutes on a plate shaker at room temperature set to 450 rpm and allowed to rest for 15 minutes. Viable cells were measured by luminescence using a microtiter plate reader. The data was plotted as % viability vs. concentration and standardized to untreated cells.
In general terms: ATP-based viability assays read luminescence as a measure of living cells.

Series [1] relates to normal male C57BL/6 non-tumor-bearing mice. The series is described as follows: Tolerability in normal non-tumor-bearing mice (body weight, CBC, serum chemistry, ataxia, sciatic nerve histology). It is filed as in vivo, mouse. To be noted: for Lymphocyte mean / Neutrophil mean / WBC # mean: blood Day 14; for mice developing ataxia / Ataxia (%): n=5/group; for Ataxia (%): intravenous q7d×2, male C57BL/6 mice, to Day 14. The procedure:
Treatments were administered intravenously on a q7d×2 schedule, i.e., two treatments seven days apart (the first treatment was on Day one). The study ended on Day 14, six days after the 2nd treatment. Blood was collected for complete blood count (CBC) and serum chemistry. Leg muscles were collected so that nerve degeneration could be assessed from the sciatic nerve.

The subject of series [2] is SK-OV-3 ovarian human xenograft model. The series is described as follows: In vivo efficacy in SK-OV-3 ovarian human xenograft model. Further details: species or system mouse. Here is the method: SK-OV-3 cells were grown in culture to confluency in RPMI medium containing 10% FBS and 1% penicillin/streptomycin and then resuspended in RPMI (passage 4) for implantation into mice. […]
(Xenograft models place foreign cells or tissue in a host animal.)

For series [3], the system named is B16.F10 murine melanoma model. Nature of the series: Efficacy and tolerability of PEGylated docetaxel-5050 PLGA-O-acetyl nanoparticles in B16.F10 murine melanoma model. Type of series: in vivo, mouse. The procedure:
Refer to table for detailed description of formulations.
Tumor volume was calculated with the following equation: (width×width×length)/2 mm3.

Series [4] has as its system MDA-MB-435 melanoma human xenograft model. The series is described as follows: In vivo efficacy in MDA-MB-435 melanoma human xenograft model. Further details: species or system mouse. The procedure:
MDA-MB-435 cells were grown in culture to confluency in RPMI medium containing 10% FBS and 1% penicillin/streptomycin and then resuspended in RPMI (passage 4) for implantation into mice. A volume of 0.1 mL containing 4.0×10^6 cells MDA-MB-435 cells were implanted into the mammary gland of female CD-1 nude mice on Day 1.

The test system of series [5] is HCT-116 colon xenograft model. Nature of the series: In vivo efficacy in HCT-116 colon xenograft model. Further details: species or system mouse. As to conditions: 30 mg/kg IV; male CD-1 nude mice. The procedure:
HCT-116 cells were grown in culture to confluency in McCoy's 5a medium containing 10% FBS and 1% penicillin/streptomycin and then resuspended in McCoy's 5a (passage 4).
The treatments were administered 1V into the tail vein at the respective dose volumes (refer to previous paragraph), beginning on post-implantation Day 13, when the mean tumor volume was 131 mm3.

Series [6] can be described thus: Lyophilization of stealth liposome (Doxil). It is filed as physicochemical. To be noted: lipids 16 mg/mL, Sucrose lyophilization cycle, post lyophilization.
The nature of series [7]: Simple lyophilization of PLGA7K-PVA-PEG2K-30 and PLGA7K-PVA-PEG5K-30 PEGylated nanoparticle formulations. Type of series: physicochemical. As to conditions: 2K PEG PLGA nanoparticles 20 mg/mL, cryoprotectant 20 mg/mL (1:1 w/w). The text has this: The results are similar to that obtained for PEGylated nanoparticles A except for SB-β-CD. The result from SB-β-CD supported the H-bonding mechanism for cryoprotection of PEGylated PLGA nanoparticles since SB-β-CD has less hydroxyl groups than α-CD, γ-CD and HP-β-CD (about ⅓ of —OH groups of β-CD are substituted by sulfobutyl groups).

A short description of series [8]: Cryoprotectant screen, sucrose lyophilization cycle. Type of series: physicochemical. To be noted: PEGylated nanoparticles A; for Dv90 / PDI / Zave: reconstituted. The procedure: A cryoprotectant screen was performed as follows.
These conditions are shown below in Table 21.

A short description of series [9]: Lyophilization using HP-β-CD, freezing with liquid nitrogen and vacuum at room temperature.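 Note: cyclodextrins or their derivatives tested as cryoprotectant during lyophilization of PEGylated nanoparticles, assessing particle size growth attributed to PEG crystallization.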 It is filed as physicochemical. As to conditions: PEGylated nanoparticles A, polymer 31.25 mg/mL, cryoprotectant 40 mg/mL (1.28:1 w/w), vacuum at room temperature.
Experimental: In this example, a new strategy of using cyclodextrins and their derivatives as a cryoprotectant was tested. […] A cryoprotectant is needed to lyophilize liquid formulation that contain PEGylated nanoparticles A (Entries #1 and #2).
Where [10] appears, read: q4dq3dx3, 15 mg/kg IV, male C57BL/6 mice.
[11] abbreviates: q7d schedule, three times once every week, 15 mg/kg.
The mark [12] stands for this setting: cryoprotectant 100 mg/mL (6.25:1 w/w lipid).
Where [13] appears, read: cryoprotectant 150 mg/mL (12.5:1 w/w lipid).
Setting [14] is: cryoprotectant 200 mg/mL (18.5:1 w/w lipid).
Where [15] appears, read: polymer 10.42 mg/mL (Doce. 0.50), cryoprotectant 100 mg/mL (9.6:1 w/w).
Setting [16] is: polymer 20.83 mg/mL (Doce. 1.00), cryoprotectant 100 mg/mL (4.8:1 w/w).
[17] abbreviates: polymer 26.05 mg/mL (Doce. 1.25), cryoprotectant 100 mg/mL (3.8:1 w/w).
Setting [18] is: polymer 31.25 mg/mL (Doce. 1.5), cryoprotectant 100 mg/mL (3.2:1 w/w).

pIC50: −log10 of the molar value. Several values for one entry are separate records, joined by “and”; a condition that tells them apart may be missing. Equal entries are not always repeated.

As to `CC(=O)O[C@@]12CO[C@@H]1C[C@H](O)[C@@]1(C)C(=O)[C@H](O)C3=C(C)[C@@H](OC(=O)[C@H](O)[C@@H](NC(=O)OC(C)(C)C)c4ccccc4)C[C@@](O)([C@@H](OC(=O)c4ccccc4)[C@H]21)C3(C)C` [Free docetaxel, docetaxel], in the series with B16.F10 cells, the pIC50 (in general, −log10 of the IC50, conventionally taken in molar units) was 6.89. The “body weight above initial on Day 14” value in series [1] (30 mg/kg IV q7d×2) is recorded as 3%; in [1] (45 mg/kg IV q7d×2), 2%. Besides, the results for the Lymphocyte mean in series [1] (30 mg/kg IV q7d×2), in [1] (45 mg/kg IV q7d×2) and in [1] (60 mg/kg IV q7d×2) were 4350 cells/μL, 6780 cells/μL and 5590 cells/μL, respectively. Also, the Neutrophil mean in series [1] (30 mg/kg IV q7d×2) is 556 cells/μL; in series [1] (45 mg/kg IV q7d×2), 752 cells/μL; in series [1] (60 mg/kg IV q7d×2) it was 470 cells/μL. Besides, the “WBC # mean” value in [1] (30 mg/kg IV q7d×2) is listed as 5.1 ×1000 cells/μL; in [1] (45 mg/kg IV q7d×2), 7.8 ×1000 cells/μL; in series [1] (60 mg/kg IV q7d×2) it was 6.2 ×1000 cells/μL. In addition, the mice developing ataxia result is “no mice” in series [1] (30 mg/kg IV q7d×2); “One mouse” in series [1] (45 mg/kg IV q7d×2, Day 14); “Five out of five mice” in [1] (60 mg/kg IV q7d×2). For the same compound, in [1] (60 mg/kg IV q7d×2, Day 14), the “body weight lost after the second treatment, by the end of the study” value is recorded as 19%. Further, the results for the “Ataxia (%)” value in series [1] (dose 30 mg/kg), in series [1] (dose 45 mg/kg) and in series [1] (dose 60 mg/kg) were 0%, 20% and 100%, respectively. For the same compound, in series [1] (doses up to 60 mg/kg), the serum chemistry parameters entry is reported as “did not affect any serum chemistry parameter”. Moreover, the “Maximum body weight loss” value is 13% in series [2] (30 mg/kg weekly×2); 12% and 11% in [3] (q3dq4dx3, 15 mg/kg IV, male C57BL/6 mice, listed as Docetaxel); 12% and 11% in series [3] (q3dq4dx3, 15 mg/kg IV, male C57BL/6 mice, listed as docetaxel); 11% in series [3] (setting [10]); 11% in series [3] (q7dx3, 30 mg/kg IV, male C57BL/6 mice); 0% in series [3] (q14dx2, 60 mg/kg IV, male C57BL/6 mice, listed as Docetaxel). For the same compound, the “Maximum body weight loss” value is “did not show any body weight loss” in series [3] (q14dx2, 60 mg/kg IV, male C57BL/6 mice, listed as docetaxel); 11% in [3] (setting [11]); 10% in series [4] (15 mg/kg IV Days 21 and 28 (weekly×2)); 14% in [4] (30 mg/kg IV Days 21 and 28 (weekly×2)); 14% in series [5]. Moreover, the ataxia result in series [2] (30 mg/kg weekly×2) is recorded as “did not cause ataxia”; in series [2] (60 mg/kg weekly×2, four days after the second treatment), “observed in all the mice”; in series [4] (30 mg/kg weekly×2) it was “did not cause ataxia”; in series [4] (60 mg/kg weekly×2, listed as docetaxel), “developed ataxia”; in series [4] (60 mg/kg weekly×2, listed as free docetaxel), “Ataxia was observed”. The body weight loss result in [2] (60 mg/kg IV Days 51 and 58 (weekly×2), female CD-1 nude mice) is listed as “greater than 20%”; in [4] (60 mg/kg IV Days 21 and 28 (weekly×2), female CD-1 nude mice) it was “greater than 20%”. In addition, the “Tumor growth delay (TGD)” value in [3] (setting [10]) is given as 11 days. Also, the “Tumor growth inhibition (TGI)” value in [3] (setting [10]) stood at 90%. This compound also gave a TGD in [3] (setting [11]) of 11 days.

`COc1cccc2c1C(=O)c1c(O)c3c(c(O)c1C2=O)C[C@@](O)(C(=O)CO)C[C@@H]3O[C@H]1C[C@H](N)[C@H](O)[C@H](C)O1` [Free doxorubicin, doxorubicin] had a pIC50 in the series on B16.F10 cells of 4.85.

Compound `CC(=O)O[C@H]1C(=O)[C@@]2(C)[C@H]([C@H](OC(=O)c3ccccc3)[C@]3(O)C[C@H](OC(=O)[C@H](O)[C@@H](NC(=O)c4ccccc4)c4ccccc4)C(C)=C1C3(C)C)[C@]1(OC(C)=O)CO[C@@H]1C[C@@H]2O` [Free paclitaxel, paclitaxel] showed a pIC50 with B16.F10 cells of 5.15.

As for `OC[C@H]1O[C@@](CO)(O[C@H]2O[C@H](CO)[C@@H](O)[C@H](O)[C@H]2O)[C@@H](O)[C@@H]1O` [Sucrose, sucrose], the Dv90 was found to be 58.5 nm in [6] (setting [12]); 533 nm in [6] (setting [13]); 1640 nm in series [6] (setting [14]); 120 nm in [8] (setting [15]); 120 nm in series [8] (setting [16]); 155 nm in series [9]. The PDI worked out at 0.390 in [6] (setting [12]); 0.484 in [6] (setting [13]); 0.506 in [6] (setting [14]); 0.081 in series [8] (setting [15]); 0.081 in [8] (setting [16]); 0.110 in series [8] (setting [17]). The PDI was determined as 0.125 in series [8] (setting [18]) and 0.207 in [9]. Further, the Zave in series [6] (setting [12]) is recorded as 142.4 nm; in series [6] (setting [13]) it was 219.3 nm; in [6] (setting [14]), 200.2 nm; in series [8] (setting [15]), 90.62 nm; in series [8] (setting [16]), 91.37 nm; in series [8] (setting [17]), 92.79 nm. Also, the Zave was found to be 94.72 nm in series [8] (setting [18]) and 197.2 nm in series [9]. In addition, the “outcome after lyophilization (in place of particle size)” value in series [7] is “Precipitated”. Further, the “Filtration Loss (0.2 μm PES Filter)” value in series [8] (setting [15]) worked out at 2%; in series [8] (setting [16]), 2%; in series [8] (setting [17]) it was 10%; in series [8] (polymer 31.25 mg/mL (Doce. 1.50), cryoprotectant 100 mg/mL (3.2:1 w/w)), 15%. Besides, the “Lyophilized preparation Appearance” value in [8] (setting [15]), in [8] (setting [16]), in series [8] (setting [17]) and in [8] (setting [18]) was “good” each time. In addition, the “Recon. Solution Appearance” value is on record as “good” in series [8] (setting [15]), “good” in series [8] (setting [16]), “good” in [8] (setting [17]) and “slight” in series [8] (setting [18]). For the same compound, the “Reconstituted Solution appearance” value in [9] is reported as “precipitation”.

As for doxorubicin 5050 PLGA amide, the “growth of B16.F10 cells” value with B16.F10 cells (24, 48 and 72 hours of incubation) is “inhibited the growth of B16.F10 cells in a dose and time dependent manner”.
